Test results taken from the NIST ThermoML archive (doi:10.1021/je800047t).
Values joined by “and” are separate entries in the source; they are usually repeats but may differ in a detail not shown here. Identical values can stand only once. ± gives the expanded uncertainty stated by the source.

Assay: molar heat capacity at constant pressure
Conditions: 101.33 kPa, Small sample (50 mg) DSC

O[C@@H]1CCCC[C@@H]1O [cis-1,2-cyclohexanediol]
Conditions	molar heat capacity at constant pressure
174.3 K, Crystal 2	89.6 ± 2 J/K/mol
185.2 K, Crystal 2	92.7 ± 2.2 J/K/mol
193.1 K, Crystal 2	100 ± 3 J/K/mol
202.2 K, Crystal 2	101.1 ± 2.1 J/K/mol
215.9 K, Crystal 2	111 ± 2.4 J/K/mol
230.1 K, Crystal 2	121.1 ± 2.2 J/K/mol
248.1 K, Crystal 2	127.3 ± 2.3 J/K/mol
259.2 K, Crystal 2	134.9 ± 2.2 J/K/mol
266.2 K, Crystal 2	138.2 ± 2.1 J/K/mol
273.1 K, Crystal 2	141.4 ± 2.6 J/K/mol
278.2 K, Crystal 2	148.8 ± 2.5 J/K/mol
283 K, Crystal 2	151.1 ± 2.8 J/K/mol
288.2 K, Crystal 2	152 ± 3 J/K/mol and 154.2 ± 2.7 J/K/mol
293.2 K, Crystal 2	157.8 ± 2.6 J/K/mol and 157.6 ± 2.6 J/K/mol
298.1 K, Crystal 2	160.4 ± 2.9 J/K/mol
300.2 K, Crystal 2	162 ± 5 J/K/mol and 163.9 ± 2.7 J/K/mol
308.2 K, Crystal 2	168 ± 5 J/K/mol and 166.4 ± 2.8 J/K/mol
316 K, Crystal 2	171.9 ± 2.7 J/K/mol
323.3 K, Crystal 2	175 ± 2.8 J/K/mol
328.2 K, Crystal 2	177.2 ± 3.1 J/K/mol
333.2 K, Crystal 2	180.8 ± 3.1 J/K/mol
339.2 K, Crystal 2	184.3 ± 3.1 J/K/mol
344.1 K, Crystal 2	186.2 ± 3.1 J/K/mol
346.3 K, Crystal 2	190 ± 3.2 J/K/mol
348.1 K, Crystal 2	191.8 ± 3.1 J/K/mol
350.2 K, Crystal 2	192.5 ± 3.1 J/K/mol
363.1 K, Crystal 1	279.6 ± 4.3 J/K/mol
366.2 K, Crystal 1	284.9 ± 4.4 J/K/mol
367.2 K, Crystal 1	290.4 ± 4.5 J/K/mol
368.2 K, Crystal 1	292.8 ± 4.5 J/K/mol
378.1 K, Liquid	297.9 ± 4.6 J/K/mol
383.2 K, Liquid	300 ± 4.6 J/K/mol
385.2 K, Liquid	302.5 ± 4.7 J/K/mol
388 K, Liquid	304.1 ± 4.7 J/K/mol
393.2 K, Liquid	305 ± 5 J/K/mol
397.3 K, Liquid	306.3 ± 4.7 J/K/mol
403.1 K, Liquid	310.5 ± 4.8 J/K/mol
413.2 K, Liquid	312.8 ± 4.8 J/K/mol

O[C@H]1CC[C@H](O)CC1 [trans-1,4-cyclohexanediol]
Conditions	molar heat capacity at constant pressure
176.5 K, Crystal	100.6 ± 2.1 J/K/mol
183.2 K, Crystal	105.6 ± 2.2 J/K/mol
189.1 K, Crystal	109.5 ± 2.2 J/K/mol
198.9 K, Crystal	115.4 ± 2.3 J/K/mol
206.9 K, Crystal	115.6 ± 4.3 J/K/mol
215 K, Crystal	121 ± 2 J/K/mol
222.2 K, Crystal	124.6 ± 2.4 J/K/mol
230.2 K, Crystal	127.3 ± 2.5 J/K/mol
238.3 K, Crystal	135.4 ± 2.4 J/K/mol
258.3 K, Crystal	142.2 ± 2.7 J/K/mol
273.2 K, Crystal	145.6 ± 2.7 J/K/mol
278.1 K, Crystal	148.8 ± 2.6 J/K/mol and 150.6 ± 2.9 J/K/mol and 149 ± 3 J/K/mol
283.2 K, Crystal	151 ± 3 J/K/mol and 151.1 ± 2.9 J/K/mol
288.2 K, Crystal	154 ± 3 J/K/mol
293.2 K, Crystal	156.4 ± 2.9 J/K/mol and 157.4 ± 2.7 J/K/mol
303.2 K, Crystal	167 ± 2.9 J/K/mol
308.1 K, Crystal	168.1 ± 2.8 J/K/mol and 169.9 ± 4.7 J/K/mol
313.2 K, Crystal	173 ± 3 J/K/mol
323.3 K, Crystal	174 ± 3 J/K/mol
333.1 K, Crystal	177.4 ± 3 J/K/mol
343.2 K, Crystal	181.4 ± 3.1 J/K/mol and 183.9 ± 3 J/K/mol
353.1 K, Crystal	187.1 ± 3.2 J/K/mol
363.2 K, Crystal	190.5 ± 3.4 J/K/mol
373.2 K, Crystal	198 ± 4 J/K/mol
393.1 K, Liquid	310.7 ± 4.8 J/K/mol
403.2 K, Liquid	313 ± 6 J/K/mol
